Data taken from patent publication US20140073801A1, “PYRROLIDINE DERIVATIVES AS SELECTIVE GLYCOSIDASE INHIBITORS AND USES THEREOF” (Summit Corporation Plc, priority 2011, published 2014).

Tests used:
Assay type in all cases: biochemical
[1] = tested on: human β-hexosaminidase [human placenta] (HexA/B); assay: Determination of IC50 values for inhibition of human β-hexosaminidase; conditions: ratio
Experimental: (§1) Inhibitors identified from the screen described in Example 1 were evaluated for IC50 against human β-hexosaminidase [human placenta, Sigma-Aldrich] using a range of inhibitor concentrations from 300 μM to 0.003 μM or 100 μM to 0.001 μM and the following reaction conditions:
(§2) Reactions were carried out at room temperature for thirty minutes and then quenched through the addition of 150 μl 0.5M Na2CO3. Fluorescence readings were taken at excitation wavelength 360 nm and emission wavelength 450 nm. IC50 values were calculated using XLFit 4. The selectivity ratio for inhibition of human O-GlcNAcase over human β-hexosaminidase is defined here as:
(§3) IC50(human β-hexosaminidase)/IC50(Human OGA)

[2] = molecular target: T1, human β-hexosaminidase [human placenta] (HexA/B); assay: as above; conditions: human β-hexosaminidase, human placenta; room temperature, thirty minutes
T1 construct: other: human β-hexosaminidase, human placenta; room temperature, thirty minutes
Experimental: as §1, §2, §3

human OGA = molecular target: T2, human OGA (Homo sapiens, UniProt O60502); assay: Determination of IC50 values for inhibition of human OGA
T2 construct: made in house
T2 sequence (O60502 1-916): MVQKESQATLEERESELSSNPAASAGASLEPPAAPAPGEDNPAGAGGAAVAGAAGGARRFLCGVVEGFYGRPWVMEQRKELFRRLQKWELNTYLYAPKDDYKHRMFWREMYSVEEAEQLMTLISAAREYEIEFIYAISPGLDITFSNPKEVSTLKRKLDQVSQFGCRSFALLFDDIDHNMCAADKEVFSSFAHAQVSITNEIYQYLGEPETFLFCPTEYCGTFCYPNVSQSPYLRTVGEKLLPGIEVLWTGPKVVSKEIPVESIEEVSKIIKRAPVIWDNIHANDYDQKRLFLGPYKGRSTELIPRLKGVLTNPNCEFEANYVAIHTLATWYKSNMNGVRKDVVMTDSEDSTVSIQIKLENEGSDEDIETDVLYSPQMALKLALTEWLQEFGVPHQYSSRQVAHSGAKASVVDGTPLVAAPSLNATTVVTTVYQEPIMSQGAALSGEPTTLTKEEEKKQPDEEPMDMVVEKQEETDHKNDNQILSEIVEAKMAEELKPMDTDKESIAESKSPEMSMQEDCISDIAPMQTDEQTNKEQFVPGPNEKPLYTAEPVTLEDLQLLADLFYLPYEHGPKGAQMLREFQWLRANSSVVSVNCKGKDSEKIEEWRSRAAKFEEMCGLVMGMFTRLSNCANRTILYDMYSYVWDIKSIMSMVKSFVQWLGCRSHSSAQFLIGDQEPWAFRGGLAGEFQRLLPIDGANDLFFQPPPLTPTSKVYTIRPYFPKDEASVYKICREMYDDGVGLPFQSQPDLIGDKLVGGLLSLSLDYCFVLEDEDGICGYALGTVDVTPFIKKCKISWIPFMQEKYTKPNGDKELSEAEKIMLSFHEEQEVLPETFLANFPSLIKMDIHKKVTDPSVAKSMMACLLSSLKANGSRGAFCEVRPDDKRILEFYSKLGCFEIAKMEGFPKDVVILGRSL
Experimental: Inhibitors identified from the screen described in Example 1 were evaluated for IC50 using a procedure adapted from Biochem. J. 2009, 420, 221-227. IC50 determination was carried out using a range of inhibitor concentrations from 300 μM to 0.003 μM or 100 μM to 0.001 μM. IC50 values were calculated using XLFit 4.

SMILES | Selectivity: IC50(human β-hexosaminidase)/IC50(Human OGA) [1] | IC50 [2] [µM] | IC50 (human OGA) [µM]
CCNC(=O)C[C@@H]1[C@@H](O)[C@H](O)[C@@H](CO)N1CCCc1ccc(Sc2ccccc2)cc1 [Compound A071, 2-((2R,3R,4R,5R)-3,4-dihydroxy-5-(hydroxymethyl)-1-(3-(4-(phenylthio)phenyl)propyl)pyrrolidin-2-yl)-N-ethylacetamide] | >42857 | > 300 | 0.007
CC(C)CNC(=O)C[C@@H]1[C@H](O)[C@H](O)[C@@H](CO)N1CCCc1ccccc1 [Compound A026, 2-((2R,3S,4R,5R)-3,4-dihydroxy-5-(hydroxymethyl)-1-(3-phenylpropyl)pyrrolidin-2-yl)-N-isobutylacetamide] | >68.34 | > 300 | 4.39
CCNC(=O)C[C@@H]1[C@@H](O)[C@H](O)[C@@H](CO)N1CCCc1ccccc1 [Compound A061, 2-((2R,3R,4R,5R)-3,4-dihydroxy-5-(hydroxymethyl)-1-(3-phenylpropyl)pyrrolidin-2-yl)-N-ethylacetamide] | >4329 | > 300 | 0.0693
CCCCCCN1[C@H](CO)[C@@H](O)[C@@H](O)[C@@H]1CC(=O)NC [Compound A034, 2-((2S,3S,4R,5R)-1-hexyl-3,4-dihydroxy-5-(hydroxymethyl)pyrrolidin-2-yl)-N-methylacetamide] | >4.41 | > 300 | 68
CCCCCCN1[C@H](CC(=O)NCCO)[C@H](O)[C@H](O)[C@H]1CO [Compound A028, 2-((2R,3S,4R,5R)-1-hexyl-3,4-dihydroxy-5-(hydroxymethyl)pyrrolidin-2-yl)-N-(2-hydroxyethyl)acetamide] | >1.39 | ≥ 300 | 215
CCCCCCN1[C@H](CO)[C@@H](O)[C@H](O)[C@@H]1CC(=O)NCC [Compound A054, N-ethyl-2-((2S,3R,4R,5R)-1-hexyl-3,4-dihydroxy-5-(hydroxymethyl)pyrrolidin-2-yl)acetamide] | >42.98 | > 300 | 6.98
CNC(=O)C[C@@H]1[C@H](O)[C@H](O)[C@@H](CO)N1CCOc1ccccc1 [Compound A037, 2-((2R,3S,4R,5R)-3,4-dihydroxy-5-(hydroxymethyl)-1-(2-phenoxyethyl)pyrrolidin-2-yl)-N-methylacetamide] | >1315 | > 300 | 0.228
CCCCCCN1[C@H](CC(=O)NCC(C)C)[C@H](O)[C@H](O)[C@H]1CO [Compound A027, 2-((2R,3S,4R,5R)-1-hexyl-3,4-dihydroxy-5-(hydroxymethyl)pyrrolidin-2-yl)-N-isobutylacetamide] | >25.95 | > 300 | 11.6
CNC(=O)C[C@@H]1[C@H](O)[C@H](O)[C@@H](CO)N1CCCNS(=O)(=O)c1ccc(-c2ccccc2)cc1 [Compound A072, 2-((2R,3S,4R,5R)-1-(3-([1,1′-biphenyl]-4-ylsulfonamido)propyl)-3,4-dihydroxy-5-(hydroxymethyl)pyrrolidin-2-yl)-N-methylacetamide] | >150000 | > 300 | 0.002
C=CCNC(=O)C[C@@H]1[C@H](O)[C@H](O)[C@@H](CO)N1CCCCCC [Compound A039, N-allyl-2-((2R,3S,4R,5R)-1-hexyl-3,4-dihydroxy-5-(hydroxymethyl)pyrrolidin-2-yl)acetamide] | >188.68 | > 300 | 1.59
CNC(=O)C[C@@H]1[C@H](O)[C@H](O)[C@@H](CO)N1CCCCc1ccccc1 [Compound A020, 2-((2R,3S,4R,5R)-3,4-dihydroxy-5-(hydroxymethyl)-1-(4-phenylbutyl)pyrrolidin-2-yl)-N-methylacetamide] | >13215 | > 300 | 0.023

Next, values leading:

Selectivity: IC50(human β-hexosaminidase)/IC50(Human OGA) [1] | IC50 [2] [µM] | IC50 (human OGA) [µM] | SMILES
0.14 | 0.031 | 0.228 | CNC(=O)C[C@@H]1[C@@H](O)[C@H](O)[C@H](CO)N1CCCc1ccccc1 [Compound A058, 2-((2R,3R,4R,5S)-3,4-dihydroxy-5-(hydroxymethyl)-1-(3-phenylpropyl)pyrrolidin-2-yl)-N-methylacetamide]
>3.97 | > 300 | 75.5 | CCCCCCN1[C@H](CC(=O)NCC2CCCCC2)[C@H](O)[C@H](O)[C@H]1CO [Compound A031, N-(cyclohexylmethyl)-2-((2R,3S,4R,5R)-1-hexyl-3,4-dihydroxy-5-(hydroxymethyl)pyrrolidin-2-yl)acetamide]
3355 | 151 | 0.045 | CNC(=O)C[C@@H]1[C@H](O)[C@H](O)[C@@H](CO)N1CCCCCCO [Compound A040, 2-((2R,3S,4R,5R)-3,4-dihydroxy-1-(6-hydroxyhexyl)-5-(hydroxymethyl)pyrrolidin-2-yl)-N-methylacetamide]
8342 | 58.4 | 0.007 | CNC(=O)C[C@@H]1[C@H](O)[C@H](O)[C@@H](CO)N1CCCNC(=O)OC(C)(C)C [Compound A065, tert-butyl (3-((2R,3R,4S,5R)-3,4-dihydroxy-2-(hydroxymethyl)-5-(2-(methylamino)-2-oxoethyl)pyrrolidin-1-yl)propyl)carbamate]
>2142 | > 300 | 0.144 | CCCNC(=O)C[C@@H]1[C@H](O)[C@H](O)[C@@H](CO)N1CCCCCCCCCO [Compound A005, 2-((2R,3S,4R,5R)-3,4-dihydroxy-5-(hydroxymethyl)-1-(9-hydroxynonyl)pyrrolidin-2-yl)-N-propylacetamide]
0.44 | 0.405 | 0.926 | CCCCCCN1[C@H](CO)[C@@H](O)[C@H](O)[C@@H]1CC(=O)NC [Compound A047, 2-((2S,3R,4R,5R)-1-hexyl-3,4-dihydroxy-5-(hydroxymethyl)pyrrolidin-2-yl)-N-methylacetamide]
>3.16 | > 300 | 94.9 | CCCCCCN1[C@H](CO)[C@H](O)[C@@H](O)[C@H]1CC(=O)NCCO [Compound A030, 2-((2R,3S,4S,5R)-1-hexyl-3,4-dihydroxy-5-(hydroxymethyl)pyrrolidin-2-yl)-N-(2-hydroxyethyl)acetamide]
4.27 | 0.0299 | 0.007 | CNC(=O)[C@H]1N[C@H](CO)[C@@H](O)[C@@H]1O [Compound A059, (2S,3R,4R,5R)-3,4-dihydroxy-5-(hydroxymethyl)-N-methylpyrrolidine-2-carboxamide]
0.54 | 73 | 136 | CCCCCCN1[C@H](CC(=O)NC)[C@H](O)[C@H](O)[C@@H]1CO [Compound A036, 2-((2R,3S,4R,5S)-1-hexyl-3,4-dihydroxy-5-(hydroxymethyl)pyrrolidin-2-yl)-N-methylacetamide]
0.89 | 2.5 | 2.8 | CNC(=O)[C@H]1N[C@@H](CO)[C@@H](O)[C@@H]1O [Compound A042, (2S,3R,4R,5S)-3,4-dihydroxy-5-(hydroxymethyl)-N-methylpyrrolidine-2-carboxamide]
5472 | 197 | 0.036 | CNC(=O)C[C@@H]1[C@H](O)[C@H](O)[C@@H](CO)N1CCCCCCCCCO [Compound A009, 2-((2R,3S,4R,5R)-3,4-dihydroxy-5-(hydroxymethyl)-1-(9-hydroxynonyl)pyrrolidin-2-yl)-N-methylacetamide]
